The text below walks through data of publication PMC4027965 (Molecular imaging, 2013).

Each structure is given as a SMILES string.

A short description of the data set: in vivo. To be noted: female, athymic nude, mouse, liver, iv, 3.7 MBq (100 uCi), total radioactivity.

A word on the tissue uptake: it is the percentage of the injected dose found per gram of tissue.

As for `N=C(N)NCCC[C@@H]1NC(=O)[C@H](CSC2CC(=O)N(CCNC(=O)CCCC(=O)Nc3ccc(C4=NNC(c5ccccn5)=C5CCC(OCCF)CCCC45)nc3)C2=O)NC(=O)[C@@H](Cc2ccc(O)cc2)NC(=O)[C@H](CC(=O)O)NC(=O)CNC1=O` (stereo partly shown) [^18F-TTM-RGD], the tissue uptake at 2 h was 2.35 ± 0.24 %ID/g.
